How the values were obtained:
[1] = cited from earlier work
[2] = tested on: expert panel members; experiment: Sucrose Equivalent Value (SEV), perceived sweetness matched to stock sucrose solutions; format: in vivo; settings: for effect on sweetness of sucrose solution (dose response curve): 0 to 1000 ppm in pH 3.2 buffered 5% sucrose solution; for effect on sweetness (SEV) of sucrose solutions, comparison of forms: 500 ppm in pH 3.2 buffered solutions with 0%, 3%, 5%, 7% and 9% sucrose; for SEV (%): 500 ppm potentiator alone in pH 3.2 buffered 5% sucrose solution
Method: One method of measuring the perceived sweetness of a solution is to match it with a stock sucrose solution of known concentration. In the present experiments, the compound of interest is added at a predetermined concentration to a pH 3.2 buffered solution containing 5% sucrose. A number of expert panel members then taste the solution and compare it to a battery of stock sucrose solutions ranging from 3% to 15% at increments of 1%. Each panel member decides which sucrose solution is equisweet with the solution containing the compound of interest. The mean value is then reported as the SEV. Results are reported to 1 decimal place.
In accordance with this methodology, 3-HB was added to a pH 3.2 buffered solution containing 5% sucrose to produce solutions containing from 0 to 1000 ppm 3-HB in 100 ppm increments. […] From FIG. 1 it is apparent that as the dosage of 3-HB increases so does the sweetness of the resultant solution. However the effect is non-linear with each incremental addition having a diminishing effect. The maximum sweetness attainable would appear to be about 7.9% SEV (based on a 5% sucrose solution).
The same methodology as described in Example 7 was repeated with 2,4-DHB in place of 3-HB, to produce the dose response curve for 2,4-DHB (FIG. 2). […] The maximum attainable sweetness would appear to be about 6.7% SEV (based on a 5% sucrose solution).
500 ppm of a sweetener potentiator was added to a pH 3.2 buffered solution containing 5% sucrose and the SEV of the resultant solution determined.
500 ppm of the sweetener potentiator then was added to a 5% sucrose solution containing 500 ppm 3-HB to produce a series of solutions. […] The use of 500 ppm of 3-HB alone results in an SEV of 6.9% whereas in all cases but two (2,4-DHB and 3,4-DHB) the addition of a second sweetener potentiator results in a little change or even a decrease in SEV. This is highly surprising considering that all of the potentiators are shown to have SEVs greater than 5%.
The methodology was repeated to produce a series of solutions containing 500 ppm 2,4-DHB and 500 ppm of a second sweetener potentiator.
500 ppm of 3-HB, 500 ppm of 2,4-DHB and 500 ppm of 3,4-dihydroxybenzoic acid (3,4-DHB) were added to a pH 3.2 buffered solution containing 5% sucrose and the SEV determined. The results are shown in FIG. 7 together with other combinations of 3-HB, 2,4-DHB and 3,4-DHB for comparison. The solution containing the combination of 3-HB and 2,4-DHB (hatched) has a much higher SEV (8.7%) than the combination of either 3,4-DHB and 3-HB (7.6%) or the combination of 3,4-DHB and 2,4-DHB (6.8%). The three-way combination of the embodiment (hatched) is better still with an SEV of 9.8%.
pH 3.2 buffered solutions were prepared containing 0%, 3%, 5%, 7% and 9% sucrose. 500 ppm of 2,4-DHB acid, 500 ppm of the sodium salt of 2,4-DHB and 500 ppm of the potassium salt of 2,4-DHB were added individually to each of the sucrose solutions. The SEV for each of the solutions was then determined.
The SEV of each sweetener solution was then evaluated after the addition 500 ppm of 3-HB, the addition of 500 ppm of 2,4-DHB and the addition of both 500 ppm 3-HB and 2,4-DHB.
500 ppm of 3-aminobenzoic acid and 500 ppm of 4-aminobenzoic acid were individually added to separate pH 3.2 buffered solutions containing 5% sucrose and the SEVs of the resultant solutions were determined. The SEV of 3-aminobenzoic acid was about 7%, i.e., increased the sweetness intensity of 5% sucrose to about 7%. The SEV of 4-aminobenzoic acid was about 5.5-6%, i.e., increased the sweetness intensity of 5% sucrose to about 5.5-6%.

| SMILES | effect on sweetness of sucrose solution (dose response curve) [2] | effect on sweetness (SEV) of sucrose solutions, comparison of forms [2] | SEV (%) [2] [%] | further results |
| --- | --- | --- | --- | --- |
| O=C(O)c1ccc(O)cc1O [2,4-DHB, 2,4-dihydroxybenzoic acid] | enhances the sweetness of the sucrose solution | enhances the sweetness of the sucrose solution in every case | – | effect on sweetness of 5% sucrose solution ([1]; 0.2% 2,4-DHB, Canadian Patent No. 1208966): increase in sweetness; effect on sweetness intensity of sucralose and aspartame ([1]; FIGS. 1 and 2 and Tables 1 and 2 of U.S. Pat. No. 6,461,658): slightly inhibitory effect; effect on sweetness delivery profile of sucralose ([1]; U.S. Pat. No. 6,461,658): significantly reducing the length of time during which sucralose sweetness is perceived; effect on sweetness with aspartame ([1]; WO99/15032): increase sweetness synergistically |
| O=C(O)c1cc(O)c(O)c(O)c1 [3,4,5-THB, 3,4,5-tryhydroxybenzoic acid] | – | – | 5.1 | – |
| O=C(O)c1ccc(O)c(O)c1 [3,4-DHB, 3,4-dihydroxybenzoic acid] | – | – | 6.4 | – |
| O=C(O)c1cccc(O)c1 [3-HB, 3-hydroxybenzoic acid] | enhances the sweetness of the sucrose solution | – | – | effect on sweetness of saccharin solution ([2]; 500 ppm, pH 3.2 saccharin solution of SEV about 5%): enhances the sweetness to a greater degree alone than in combination with 2,4-DHB |
| O=C([O-])c1ccc(O)cc1O.[K+] [potassium salt of 2,4-DHB] | – | enhances the sweetness of the sucrose solution in every case | – | – |
| O=C([O-])c1ccc(O)cc1O.[Na+] [sodium salt of 2,4-DHB] | – | enhances the sweetness of the sucrose solution in every case | – | – |
